Test results from ChEMBL document CHEMBL1156028, “Synthesis of 1,6,7,8-tetrahydro-naphtho[2,3-d]-azepino[4,5-b]indole-9,14-diones and their inhibitory effects on pro-inflammatory cytokines” (Bioorg Med Chem Lett, 2009).
Activity calls are given as the source filed them. No cut-off for these calls is given here.

Legend:
[1] = Cytotoxicity against mouse RAW264.7 cells assessed as cell viability at 1 to 5 ug/ml after 4 hrs by MTT assay; assay type: cell-based; settings: read-out: Activity
[2] = system: RAW264.7; experiment: Antiinflammatory activity in mouse RAW264.7 cells assessed as inhibition of LPS-induced TNFalpha production after 24 hrs by immunoassay; assay type: functional, cell-based
[3] = system: RAW264.7; experiment: Antiinflammatory activity in mouse RAW264.7 cells assessed as inhibition of LPS-induced nitric oxide production after 24 hrs by immunoassay; assay type: functional, cell-based
[4] = system: RAW264.7; experiment: Antiinflammatory activity in mouse RAW264.7 cells assessed as inhibition of LPS-induced IL1-beta production at 1 to 5 ug/ml after 24 hrs by immunoassay; assay type: functional, cell-based
[5] = system: RAW264.7; experiment: Antiinflammatory activity in mouse RAW264.7 cells assessed as inhibition of LPS-induced PGE2 production at 1 ug/ml after 24 hrs by immunoassay; assay type: functional, cell-based
[6] = system: RAW264.7; experiment: Antiinflammatory activity in mouse RAW264.7 cells assessed as inhibition of LPS-induced PGE2 production at 5 ug/ml after 24 hrs by immunoassay; assay type: functional, cell-based
[7] = system: RAW264.7; experiment: Antiinflammatory activity in mouse RAW264.7 cells assessed as inhibition of LPS-induced IL-6 production at 1 to 5 ug/ml after 24 hrs by immunoassay; assay type: functional, cell-based

SMILES | viability at 4 h [1] [%] | Activity [2] | Activity [3] | Activity [4] | inhibition [5] | Activity [6] | Activity [7]
O=C1C2=C(C(=O)c3ccccc31)N(Cc1ccccc1)CCc1c2[nH]c2ccccc12 | 58 | Dose-dependent effect | Dose-dependent effect | inactive | inactive | Active | inactive
C=CCN1CCc2c([nH]c3ccccc23)C2=C1C(=O)c1ccccc1C2=O | 24 | Dose-dependent effect | Dose-dependent effect | inactive | – | Active | inactive
CN1CCc2c([nH]c3ccccc23)C2=C1C(=O)c1ccccc1C2=O | 58 | Dose-dependent effect | Dose-dependent effect | inactive | – | Active | inactive
CCCN1CCc2c([nH]c3ccccc23)C2=C1C(=O)c1ccccc1C2=O | 58 | Dose-dependent effect | Dose-dependent effect | inactive | – | Active | inactive
O=C1C2=C(C(=O)c3ccccc31)c1[nH]c3ccccc3c1CCN2 | 58 | Dose-dependent effect | Dose-dependent effect | inactive | inactive | Active | inactive
COc1cccc2c1C(=O)C1=C(NCCc3c1[nH]c1ccccc31)C2=O | 58 | Dose-dependent effect | Dose-dependent effect | inactive | inactive | Active | inactive
COc1ccc2[nH]c3c(c2c1)CCNC1=C3C(=O)c2ccccc2C1=O | 58 | Dose-dependent effect | Dose-dependent effect | inactive | inactive | Active | inactive
